Source: patent US20110100079A1, “METHOD FOR IMPARTING STRESS TOLERANCE TO PLANT” (priority 2007, published 2011)

Key:
Assay type in all cases: in vivo
“Momotaro” tomato [1] = experiment: Standard test: standard extent of imparting plant salt stress tolerance; details: 100 ppm sprayed onto leaves 10 ml/specimen, NaCl 3510 ppm in tap water, fresh weight after 2 weeks vs salt-stressed untreated control plot 1
Method: Standard Test (I) Plant Preparation A 50-cell tray is filled with potting soil (fertilizer components: N:P:K=0.4:1.9:0.6 (g)/kg potting soil); and seeds of a “Momotaro” tomato (Takii Co., Ltd.) are sowed, thinly covered with potting soil, and sufficiently irrigated to allow the seeds to sprout. When the leaves in the 2-leaf stage are fully unfolded, the soil on the tomato roots is washed away with running water, and a test is performed. For the potting soil, Kureha gardening soil manufactured by Kureha Corporation may be used. (II) Test Condition Setting The environmental conditions are controlled such that the temperature is 23° C., the relative humidity is 50%, the illuminance is 5000 Lux, and the daily light-dark cycle includes a 16-hour light period and an 8-hour dark period. Such environmental conditions can be obtained by, for example, controlling the temperature in a room or a climate chamber where the temperature and the relative humidity can be controlled, and controlling illuminance by a fluorescent light or the like. […] (III) Treatment with Plant Stress Tolerance Imparting Composition […] A known surfactant or a like material that barely affects the plant may be used in the preparation of an aqueous dispersion. Test plot: An aqueous solution or an aqueous dispersion of a test compound (sugar derivative-type surfactant) (concentration: 100 ppm) is sprayed onto the leaves in an amount of 10 ml per tomato specimen. […] NaCl is added to a solution culture medium (creating a salt stress), but no test compound (plant stress tolerance imparting composition) is given to the tomato. Control plot 2: No NaCl is added to a solution culture medium (creating no salt stress), and no test compound (plant stress tolerance imparting composition) is given to the tomato. (IV) Calculation of Standard Extent of Imparting Plant Salt Stress Tolerance (%) […] The plant stress level (standard plant salt stress level) attained in the above-described standard test is about 130%. In this regard, the standard plant salt stress level can be calculated according to Formula (ii)′ below.

“Momotaro” tomato [2] = experiment: Example 4 salt stress tolerance imparting test (tomato, tap water + NaCl); details: tap water + NaCl 3510 ppm, leaf, 2 weeks
Description: NaCl concentration 3510 ppm (water potential by NaCl: […]) (4) Cultivation period: two weeks (5) Plant preparation: A 50-cell tray was filled with Kureha gardening soil manufactured by Kureha Corporation (fertilizer components: N:P:K=0.4:1.9:0.6 g/kg soil), and seeds of a “Momotaro” tomato were sowed, thinly covered with Kureha gardening soil, and sufficiently irrigated to allow the seeds to sprout. When the leaves in the 2-leaf stage fully unfolded, the soil on the tomato roots was carefully washed away with running water, and a test was performed. (6) The chemicals used and the concentration of a treatment solution were as in Example 1 (7) Amount of application: 10 ml/specimen for leaf spraying, 50 ml/specimen for fertigation Method of Salt Stress Tolerance Imparting Test […]

[3] = test system: Potato Variety: Toyoshiro; experiment: Example 5 drying stress tolerance imparting test (potato variety Toyoshiro); details: pF 2.3, leaf, 3 weeks
Method: Other cultivation conditions were the same as the conditions of the drying stress test. Drying stress conditions: soil pF value: 2.3, 2.5, or 2.9, cultivation temperature: 23° C., relative humidity: 50%, illuminance: 5000 Lux (fluorescent light), light/dark cycle: 16 hours/8 hours (2) Cultivation Period: 3 weeks (3) Soil: Kureha gardening soil manufactured by Kureha Corporation (fertilizer components: N:P:K=0.4:1.9:0.6 g/kg soil) (4) The chemicals used and the amount of a treatment solution applied were the same as in Example 3. Method of Drying Stress Tolerance Imparting Test A planter (60 cm) was filled with Kureha gardening soil manufactured by Kureha Corporation (fertilizer components: N:P:K=0.4:1.9:0.6 g/kg soil) in a glass greenhouse, tubers of a “Thyoshiro” potato were cut in half: and 5 pieces thereof were planted in the planter, thinly covered with Kureha gardening soil, and sufficiently watered to allow the tubers to sprout. When the leaves in the 3-leaf stage fully unfolded, the Solarium tuberosu was relocated on a plant culture rack in an air-conditioned room, and a test was initiated. […] From immediately after the beginning of the test, a treatment solution of Table 1 was sprayed onto the leaves or applied to the underground portions once a week. […] Five specimens (per planter) were prepared for each of the test plot and the control plots, plant bodies were collected 3 weeks after the beginning of the test such that the roots were not cut, the soil was washed away with running water, the fresh plant body weights were measured, and a plant stress level and an extent of imparting plant stress tolerance were calculated according to Formula (ii) and (iii) above using the average of the weights.

“Momotaro” tomato [4] = experiment: Example 3 drying stress tolerance imparting test (tomato); details: pF 2.3, leaf, 3 weeks
Method: Other cultivation conditions were as with the conditions of the drying stress test. Drying stress conditions: soil pF value: 2.3, 2.5, or 2.9, cultivation temperature: 23° C., relative humidity: 50%, illuminance: 5000 Lux (fluorescent light), light/dark cycle: 16 hours/8 hours (2) Cultivation period: 3 weeks (3) Soil: Kureha gardening soil manufactured by Kureha Corporation (fertilizer components: N:P:K=0.4:1.9:0.6 g/kg soil) (4) Plant preparation: A 50-cell tray was filled with Kureha gardening soil manufactured by Kureha Corporation (fertilizer components: N:P:K=0.4:1.9:0.6 g/kg soil), and seeds of a “Momotaro” tomato were sowed, thinly covered with Kureha gardening soil, and sufficiently watered to allow the seeds to sprout. When the leaves in the 2-leaf stage fully unfolded, the soil on the tomato roots was carefully washed away with running water, and a test was performed. (5) The chemicals used and the amount of a treatment solution applied were as in Example 1. (6) Amount of treatment solution applied: 10 ml/specimen for leaf spraying, 50 ml/specimen for fertigation Method of Drying Stress Tolerance Imparting Test Five tomato specimens as prepared above were planted in a 60-cm planter placed on a plant culture rack in an air-conditioned room. […] From immediately after planting the tomatoes, a treatment solution of Table 1 was sprayed onto the leaves or applied to the underground portions once a week. […] Five specimens (per planter) were prepared for each of the test plot and the control plots, plant bodies were collected 3 weeks after the beginning of the test such that the roots were not cut, the soil was washed away with running water, the fresh plant body-weights were measured, and a plant stress level and an extent of imparting plant stress tolerance were calculated according to Formula (ii) and (iii) above using the average of the weights.

“POE (20) sorbitan monolauric acid ester [Product of present invention 12]” was tested, and the “Standard extent of imparting plant salt stress tolerance” value (from here on “Standard extent”) (“Momotaro” tomato [1]) was 116%, the “Extent of imparting plant stress tolerance” value (“Momotaro” tomato [2]; 100 ppm) was 116% and the “Extent of imparting plant stress tolerance” value (“Momotaro” tomato [2]; 200 ppm) was 117%. For the same compound, the “Extent of imparting plant stress tolerance” value ([3]; 100 ppm once a week) was 117%, the “Extent of imparting plant stress tolerance” value ([3]; 200 ppm once a week) was 120% and the “Extent of imparting plant stress tolerance” value (“Momotaro” tomato [4]; 100 ppm once a week) was 115%. For the same compound, the “Extent of imparting plant stress tolerance” value (“Momotaro” tomato [4]; 200 ppm once a week) was 118%.
In the case of “Sucrose fatty acid ester (C16, HLB = 15) [Product of present invention 21]”, the “Standard extent” value (“Momotaro” tomato [1]) is reported as 117%, the “Extent of imparting plant stress tolerance” value (“Momotaro” tomato [2]; 100 ppm) is reported as 117% and the “Extent of imparting plant stress tolerance” value ([3]; 100 ppm once a week) is reported as 118%. For the same compound, the “Extent of imparting plant stress tolerance” value (“Momotaro” tomato [4]; 100 ppm once a week) was 117%.
With `OC[C@H]1O[C@H](OC[C@H]2O[C@H](O[C@]3(CO)O[C@H](CO)[C@@H](O)[C@@H]3O)[C@H](O)[C@@H](O)[C@@H]2O)[C@H](O)[C@@H](O)[C@H]1O` [Comparative product 4, Raffinose, reference compound] the “Standard extent” value (“Momotaro” tomato [1]) was 102%, the “Extent of imparting plant stress tolerance” value (“Momotaro” tomato [2]; 100 ppm) was 102% and the “Extent of imparting plant stress tolerance” value ([3]; 100 ppm once a week) was 103%. The “Extent of imparting plant stress tolerance” value (“Momotaro” tomato [4]; 100 ppm once a week) was 102%.
For “POE (20) sorbitan monopalmitic acid ester [Product of present invention 13]”, the “Standard extent” value (“Momotaro” tomato [1]) was 116%, the “Extent of imparting plant stress tolerance” value (“Momotaro” tomato [2]; 100 ppm) was 116% and the “Extent of imparting plant stress tolerance” value ([3]; 100 ppm once a week) was 118%. The “Extent of imparting plant stress tolerance” value (“Momotaro” tomato [4]; 100 ppm once a week) was 116%.
For “POE (20) sorbitan monostearic acid ester [Product of present invention 14]”, the “Standard extent” value (“Momotaro” tomato [1]) was 114%, the “Extent of imparting plant stress tolerance” value (“Momotaro” tomato [2]; 100 ppm) was 114% and the “Extent of imparting plant stress tolerance” value ([3]; 100 ppm once a week) was 115%. For the same compound, the “Extent of imparting plant stress tolerance” value (“Momotaro” tomato [4]; 100 ppm once a week) was 115%.
With “Sucrose fatty acid ester (C18, HLB = 15) [Product of present invention 20]” the “Standard extent” value (“Momotaro” tomato [1]) was 116%, the “Extent of imparting plant stress tolerance” value (“Momotaro” tomato [2]; 100 ppm) was 116% and the “Extent of imparting plant stress tolerance” value ([3]; 100 ppm once a week) was 118%. The “Extent of imparting plant stress tolerance” value (“Momotaro” tomato [4]; 100 ppm once a week) was 117%.
With “Alkyl (C10) polyglycoside [Product of present invention 15]” the “Standard extent” value (“Momotaro” tomato [1]) was 116%, the “Extent of imparting plant stress tolerance” value (“Momotaro” tomato [2]; 100 ppm) was 116% and the “Extent of imparting plant stress tolerance” value (“Momotaro” tomato [2]; 200 ppm) was 113%. For the same compound, the “Extent of imparting plant stress tolerance” value ([3]; 100 ppm once a week) was 119%, the “Extent of imparting plant stress tolerance” value ([3]; 200 ppm once a week) was 116% and the “Extent of imparting plant stress tolerance” value (“Momotaro” tomato [4]; 100 ppm once a week) was 117%. The “Extent of imparting plant stress tolerance” value (“Momotaro” tomato [4]; 200 ppm once a week) was 115%.
With “Alkyl (C12-14) polyglycoside [Product of present invention 16]” the “Standard extent” value (“Momotaro” tomato [1]) was 117%, the “Extent of imparting plant stress tolerance” value (“Momotaro” tomato [2]; 100 ppm) was 117% and the “Extent of imparting plant stress tolerance” value ([3]; 100 ppm once a week) was 121%. For the same compound, the “Extent of imparting plant stress tolerance” value (“Momotaro” tomato [4]; 100 ppm once a week) was 118%.
For `C[N+](C)(C)CC(=O)[O-]` [Comparative product 3, Glycine betaine, reference compound], the “Standard extent” value (“Momotaro” tomato [1]) was 103%, the “Extent of imparting plant stress tolerance” value (“Momotaro” tomato [2]; 100 ppm) was 103% and the “Extent of imparting plant stress tolerance” value ([3]; 100 ppm once a week) was 102%. The “Extent of imparting plant stress tolerance” value (“Momotaro” tomato [4]; 100 ppm once a week) was 103%.
In the case of “POE (6) sorbitan monooleic acid ester [Product of present invention 10]”, the “Standard extent” value (“Momotaro” tomato [1]) is reported as 112%, the “Extent of imparting plant stress tolerance” value (“Momotaro” tomato [2]; 100 ppm) is reported as 112% and the “Extent of imparting plant stress tolerance” value ([3]; 100 ppm once a week) is reported as 113%. The “Extent of imparting plant stress tolerance” value (“Momotaro” tomato [4]; 100 ppm once a week) was 112%.
In the case of “Sucrose fatty acid ester (C18, HLB = 9) [Product of present invention 18]”, the “Standard extent” value (“Momotaro” tomato [1]) is reported as 113%, the “Extent of imparting plant stress tolerance” value (“Momotaro” tomato [2]; 100 ppm) is reported as 113% and the “Extent of imparting plant stress tolerance” value ([3]; 100 ppm once a week) is reported as 115%. For the same compound, the “Extent of imparting plant stress tolerance” value (“Momotaro” tomato [4]; 100 ppm once a week) was 113%.
“Sorbitan monooleic acid ester [Product of present invention 11]” was tested, and the “Standard extent” value (“Momotaro” tomato [1]) was 112%, the “Extent of imparting plant stress tolerance” value (“Momotaro” tomato [2]; 100 ppm) was 112% and the “Extent of imparting plant stress tolerance” value ([3]; 100 ppm once a week) was 113%. For the same compound, the “Extent of imparting plant stress tolerance” value (“Momotaro” tomato [4]; 100 ppm once a week) was 112%.
